# Results reported in US9040528B2, “Chemical compounds 542” (AstraZeneca AB, priority 2008, dated 2015).
# Target: Escherichia coli DNA gyrase A/B tetramer (Escherichia coli (strain K12), UniProt P0AES4+P0AES6)
# Test: DNA gyrase supercoiling activity fluorescence polarisation assay
# Assay type: biochemical
# Conditions: not given
# Outline: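 Supercoiling reactions quenched with 40 nM 5′-BODIPY-FL triplex-forming oligonucleotide probe in pH 3.5 NaCl/sodium acetate buffer; after 60 min, fluorescence anisotropy read (ex 485/em 535 nm). IC50 by nonlinear regression, normalised to 0.8% DMSO (100% activity) and 5 μM ciprofloxacin (0% activity).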
row,Structure (SMILES),IC50 [nM]
1,"C[C@@H]1CN2c3c(cc4c(C(=O)N5CC(C#N)C5)noc4c3F)CC3(C(=O)NC(=O)NC3=O)[C@H]2[C@H](C)O1 (relative stereo) [Example 164, 1-((2R,4 S,4 aS)-rel-11-fluoro-2,4-dimethyl-2′,4′,6′-trioxo-2,2′,3′,4,4a,4′,6,6′-octahydro-1H,1′H-spiro[isoxazolo[4,5-g][1,4]oxazino[4,3-a]quinoline-5,5′-pyrimidine]-8-ylcarbonyl)azetidine-3-carbonitrile]",1200
2,"C[C@@H]1CN2c3c(cc4c(CO)noc4c3F)CC3(C(=O)NC(=O)NC3=O)[C@H]2[C@H](C)O1 (relative stereo) [Example 185, (2R,4S,4aS)-rel-11-fluoro-8-(hydroxymethyl)-2,4-dimethyl-2,4,4a,6-tetrahydro-1H,1′H-spiro[isoxazolo[4,5-g][1,4]oxazino[4,3-a]quinoline-5,5′-pyrimidine]-2′,4′,6′(3′H)-trione]",1400

# Same assay, conditions: 5 nM enzyme, relaxed plasmid, 0.3 mM ATP, ambient temperature; read-out: E. coli DNA gyrase supercoiling IC50
row,Structure (SMILES),IC50 [nM]
1,"C[C@@H]1CN2c3c(cc4c(C(=O)NC5CC5)noc4c3F)CC3(C(=O)NC(=O)NC3=O)[C@H]2[C@H](C)O1 (relative stereo) [Example 150, (2R,4S,4aS)-rel-N-cyclopropyl-11-fluoro-2,4-dimethyl-2′,4′,6′-trioxo-2,2′,3′,4,4a,4′,6,6′-octahydro-1H,1′H-spiro[isoxazolo[4,5-g][1,4]oxazino[4,3-a]quinoline-5,5′-pyrimidine]-8-carboxamide]",1300
2,"COC1CCN(C(=O)c2noc3c(F)c4c(cc23)CC2(C(=O)NC(=O)NC2=O)[C@H]2[C@H](C)O[C@H](C)CN42)CC1 (relative stereo) [Example 151, (2R,4S,4aS)-rel-11-fluoro-8-(4-methoxypiperidine-1-carbonyl)-2,4-dimethyl-2,4,4a,6-tetrahydro-1H,1′H-spiro[isoxazolo[4,5-g][1,4]oxazino[4,3-a]quinoline-5,5′-pyrimidine]-2′,4′,6′(3′H)-trione]",5500
3,"C[C@@H]1CN2c3c(cc4c(C(=O)NCC5CC5)noc4c3F)CC3(C(=O)NC(=O)NC3=O)[C@H]2[C@H](C)O1 (relative stereo) [Example 152, (2R,4S,4aS)-rel-N-(cyclopropylmethyl)-11-fluoro-2,4-dimethyl-2′,4′,6′-trioxo-2,2′,3′,4,4a,4′,6,6′-octahydro-1H,1′H-spiro[isoxazolo[4,5-g][1,4]oxazino[4,3-a]quinoline-5,5′-pyrimidine]-8-carboxamide]",2100
4,"C[C@@H]1CN2c3c(cc4c(C(=O)N5CCCCO5)noc4c3F)CC3(C(=O)NC(=O)NC3=O)[C@H]2[C@H](C)O1 (relative stereo) [Example 153, (2R,4S,4aS)-rel-11-fluoro-2,4-dimethyl-8-(1,2-oxazinan-2-ylcarbonyl)-1,2,4,4a-tetrahydro-2′H,6H-spiro[isoxazolo[4,5-g][1,4]oxazino[4,3-a]quinoline-5,5′-pyrimidine]-2′,4′,6′(1′H,3′H)-trione]",3700
5,"C[C@@H]1CN2c3c(cc4c(C(=O)NCc5cccs5)noc4c3F)CC3(C(=O)NC(=O)NC3=O)[C@H]2[C@H](C)O1 (relative stereo) [Example 154, (2R,4S,4aS)-rel-11-fluoro-2,4-dimethyl-2′,4′,6′-trioxo-N-(thiophen-2-ylmethyl)-2,2′,3′,4,4a,4′,6,6′-octahydro-1H,1′H-spiro[isoxazolo[4,5-g][1,4]oxazino[4,3-a]quinoline-5,5′-pyrimidine]-8-carboxamide]",1500
6,"C[C@@H]1CN2c3c(cc4c(C(=O)NCc5ccncc5)noc4c3F)CC3(C(=O)NC(=O)NC3=O)[C@H]2[C@H](C)O1 (relative stereo) [Example 155, (2R,4S,4aS)-rel-11-fluoro-2,4-dimethyl-2′,4′,6′-trioxo-N-(pyridin-4-ylmethyl)-2,2′,3′,4,4a,4′,6,6′-octahydro-1H,1′H-spiro[isoxazolo[4,5-g][1,4]oxazino[4,3-a]quinoline-5,5′-pyrimidine]-8-carboxamide]",1200
7,"C[C@@H]1CN2c3c(cc4c(C(=O)NCC5CCCCC5)noc4c3F)CC3(C(=O)NC(=O)NC3=O)[C@H]2[C@H](C)O1 (relative stereo) [Example 156, (2R,4S,4aS)-rel-N-(cyclohexylmethyl)-11-fluoro-2,4-dimethyl-2′,4′,6′-trioxo-2,2′,3′,4,4a,4′,6,6′-octahydro-1H,1′H-spiro[isoxazolo[4,5-g][1,4]oxazino[4,3-a]quinoline-5,5′-pyrimidine]-8-carboxamide]",1500
8,"C[C@@H]1CN2c3c(cc4c(C(=O)N5CCC(F)(F)CC5)noc4c3F)CC3(C(=O)NC(=O)NC3=O)[C@H]2[C@H](C)O1 (relative stereo) [Example 157, (2R,4S,4aS)-rel-8-(4,4-difluoropiperidine-1-carbonyl)-11-fluoro-2,4-dimethyl-2,4,4a,6-tetrahydro-1H,1′H-spiro[isoxazolo[4,5-g][1,4]oxazino[4,3-a]quinoline-5,5′-pyrimidine]-2′,4′,6′(3′H)-trione]",6400
9,"C[C@@H]1CN2c3c(cc4c(C(=O)NC5CN(C)C5)noc4c3F)CC3(C(=O)NC(=O)NC3=O)[C@H]2[C@H](C)O1 (relative stereo) [Example 159, (2R,4S,4aS)-rel-11-fluoro-2,4-dimethyl-N-(1-methylazetidin-3-yl)-2′,4′,6′-trioxo-2,2′,3′,4,4a,4′,6,6′-octahydro-1H,1′H-spiro[isoxazolo[4,5-g][1,4]oxazino[4,3-a]quinoline-5,5′-pyrimidine]-8-carboxamide]",1400
10,"CC(=O)NC1CN(C(=O)c2noc3c(F)c4c(cc23)CC2(C(=O)NC(=O)NC2=O)[C@H]2[C@H](C)O[C@H](C)CN42)C1 (relative stereo) [Example 160, N-(1-((2R,4S,4aS)-rel-11-fluoro-2,4-dimethyl-2′,4′,6′-trioxo-2,2′,3′,4,4a,4′,6,6′-octahydro-1H,1′H-spiro[isoxazolo[4,5-g][1,4]oxazino[4,3-a]quinoline-5,5′-pyrimidine]-8-ylcarbonyl)azetidin-3-yl)acetamide]",1000
11,"C[C@@H]1CN2c3c(cc4c(C(=O)NCc5ccn(C)n5)noc4c3F)CC3(C(=O)NC(=O)NC3=O)[C@H]2[C@H](C)O1 (relative stereo) [Example 161, (2R,4S,4aS)-rel-11-fluoro-2,4-dimethyl-N-((1-methyl-1H-pyrazol-3-yl)methyl)-2′,4′,6′-trioxo-2,2′,3′,4,4a,4′,6,6′-octahydro-1H,1′H-spiro[isoxazolo[4,5-g][1,4]oxazino[4,3-a]quinoline-5,5′-pyrimidine]-8-carboxamide]",1300
12,"COCC(COC)(COC)NC(=O)c1noc2c(F)c3c(cc12)CC1(C(=O)NC(=O)NC1=O)[C@H]1[C@H](C)O[C@H](C)CN31 (relative stereo) [Example 163, (2R,4S,4aS)-rel-N-(1,3-dimethoxy-2-(methoxymethyl)propan-2-yl)-11-fluoro-2,4-dimethyl-2′,4′,6′-trioxo-2,2′,3′,4,4a,4′,6,6′-octahydro-1H,1′H-spiro[isoxazolo[4,5-g][1,4]oxazino[4,3-a]quinoline-5,5′-pyrimidine]-8-carboxamide]",17000
13,"C[C@@H]1CN2c3c(cc4c(-c5cnccn5)noc4c3F)CC3(C(=O)NC(=O)NC3=O)[C@H]2[C@H](C)O1 (relative stereo) [Example 165, (2R,4S,4aS)-rel-11-fluoro-2,4-dimethyl-8-(pyrazin-2-yl)-1,2,4,4a-tetrahydro-2′H,6H-spiro[1,4-oxazino[4,3-a][1,2]oxazolo[4,5-g]quinoline-5,5′-pyrimidine]-2′,4′,6′(1′H,3′H)-trione]",400
14,"C[C@@H]1CN2c3c(cc4c(-c5cncc(N(C)C)n5)noc4c3F)CC3(C(=O)NC(=O)NC3=O)[C@H]2[C@H](C)O1 (relative stereo) [Example 177, (2R,4S,4aS)-rel-8-(6-(dimethylamino)pyrazin-2-yl)-11-fluoro-2,4-dimethyl-2,4,4a,6-tetrahydro-1H,1′H-spiro[isoxazolo[4,5-g][1,4]oxazino[4,3-a]quinoline-5,5′-pyrimidine]-2′,4′,6′(3′H)-trione]",5000
15,"C[C@@H]1CN2c3c(cc4c(N5CCNCC5)noc4c3F)CC3(C(=O)NC(=O)NC3=O)[C@H]2[C@H](C)O1 (relative stereo) [Example 179, (2R,4S,4aS)-rel-11-fluoro-2,4-dimethyl-8-(piperazin-1-yl)-1,2,4,4a-tetrahydro-2′H,6H-spiro[isoxazolo[4,5-g][1,4]oxazino[4,3-a]quinoline-5,5′-pyrimidine]-2′,4′,6′(1′H,3′H)-trione]",2000
16,"C[C@@H]1CN2c3c(cc4c([S+](C)[O-])noc4c3F)CC3(C(=O)NC(=O)NC3=O)[C@H]2[C@H](C)O1 (relative stereo) [Example 181, (2R,4S,4aS)-rel-11-fluoro-2,4-dimethyl-8-(methylsulfinyl)-1,2,4,4a-tetrahydro-2′H,6H-spiro[1,4-oxazino[4,3-a][1,2]oxazolo[4,5-g]quinoline-5,5′-pyrimidine]-2′,4′,6′(1′H,3′H)-trione]",3300
17,"C[C@@H]1CN2c3c(cc4c(S(C)(=O)=O)noc4c3F)CC3(C(=O)NC(=O)NC3=O)[C@H]2[C@H](C)O1 (relative stereo) [Example 182, (2R,4S,4aS)-rel-11-fluoro-2,4-dimethyl-8-(methylsulfonyl)-1,2,4,4a-tetrahydro-2′H,6H-spiro[1,4-oxazino[4,3-a][1,2]oxazolo[4,5-g]quinoline-5,5′-pyrimidine]-2′,4′,6′(1′H,3′H)-trione]",2400
18,"C[C@@H]1CN2c3c(cc4c(C#N)noc4c3F)CC3(C(=O)NC(=O)NC3=O)[C@H]2[C@H](C)O1 (relative stereo) [Example 183, (2R,4S,4aS)-rel-11-fluoro-2,4-dimethyl-2′,4′,6′-trioxo-1,1′,2,3′,4,4′,4a,6′-octahydro-2′H,6H-spiro[1,4-oxazino[4,3-a][1,2]oxazolo[4,5-g]quinoline-5,5′-pyrimidine]-8-carbonitrile]",12000
